Numbers after ± are expanded uncertainties.
Assay: mn = molality of the nth substance listed, in mol/kg
Details: 100 kPa, Liquid; for viscosity: Capillary tube (Ostwald / Ubbelohde) method; for electrical conductivity: Direct current cell with electrodes; for mass density: Vibrating tube method

CCCCn1cc[n+](C)c1.O=C([O-])c1ccccc1O [1-butyl-3-methylimidazolium salicylate] + O
Details | electrical conductivity [S/m] | mass density [kg/m3] | viscosity [mPa·s]
293.15 K, m1 = 0.001 | 0.007 ± 0.0012 | – | –
293.15 K, m1 = 0.0037 | 0.0231 ± 0.0013 | – | –
293.15 K, m1 = 0.00579 | – | 998.44 ± 1.6 | –
293.15 K, m1 = 0.0058 | – | – | 1.031 ± 0.021
293.15 K, m1 = 0.0062 | 0.0356 ± 0.0014 | – | –
293.15 K, m1 = 0.007 | – | 998.49 ± 1.6 | –
293.15 K, m1 = 0.0071 | – | – | 1.035 ± 0.022
293.15 K, m1 = 0.0072 | 0.0399 ± 0.0015 | – | –
293.15 K, m1 = 0.008 | 0.0439 ± 0.0016 | – | –
293.15 K, m1 = 0.00801 | – | 998.53 ± 1.6 | –
293.15 K, m1 = 0.01 | 0.0517 ± 0.0017 | – | –
293.15 K, m1 = 0.01056 | – | 998.64 ± 1.6 | –
293.15 K, m1 = 0.0117 | – | – | 1.046 ± 0.022
293.15 K, m1 = 0.01278 | – | 998.73 ± 1.6 | –
293.15 K, m1 = 0.0144 | 0.0674 ± 0.0021 | – | –
293.15 K, m1 = 0.0158 | – | 998.86 ± 1.6 | –
293.15 K, m1 = 0.01707 | – | 998.92 ± 1.6 | –
293.15 K, m1 = 0.0205 | – | – | 1.065 ± 0.022
293.15 K, m1 = 0.02056 | – | 999.07 ± 1.6 | –
293.15 K, m1 = 0.0221 | 0.0901 ± 0.0028 | – | –
293.15 K, m1 = 0.02523 | – | 999.27 ± 1.6 | –
293.15 K, m1 = 0.0353 | – | – | 1.091 ± 0.023
293.15 K, m1 = 0.0384 | – | – | 1.096 ± 0.023
293.15 K, m1 = 0.0552 | – | – | 1.123 ± 0.023
293.15 K, m1 = 0.0765 | – | – | 1.155 ± 0.024
298.15 K, m1 = 0.001 | 0.0079 ± 0.0014 | – | –
298.15 K, m1 = 0.0037 | 0.0262 ± 0.0015 | – | –
298.15 K, m1 = 0.00579 | – | 997.28 ± 1.6 | –
298.15 K, m1 = 0.0058 | – | – | 0.925 ± 0.019
298.15 K, m1 = 0.0062 | 0.0404 ± 0.0016 | – | –
298.15 K, m1 = 0.007 | – | 997.33 ± 1.6 | –
298.15 K, m1 = 0.0071 | – | – | 0.93 ± 0.019
298.15 K, m1 = 0.0072 | 0.0452 ± 0.0017 | – | –
298.15 K, m1 = 0.008 | 0.0498 ± 0.0018 | – | –
298.15 K, m1 = 0.00801 | – | 997.37 ± 1.6 | –
298.15 K, m1 = 0.01 | 0.0588 ± 0.002 | – | –
298.15 K, m1 = 0.01056 | – | 997.48 ± 1.6 | –
298.15 K, m1 = 0.0117 | – | – | 0.943 ± 0.02
298.15 K, m1 = 0.01278 | – | 997.57 ± 1.6 | –
298.15 K, m1 = 0.0144 | 0.0771 ± 0.0024 | – | –
298.15 K, m1 = 0.0158 | – | 997.7 ± 1.6 | –
298.15 K, m1 = 0.01707 | – | 997.75 ± 1.6 | –
298.15 K, m1 = 0.0205 | – | – | 0.964 ± 0.02
298.15 K, m1 = 0.02056 | – | 997.9 ± 1.6 | –
298.15 K, m1 = 0.0221 | 0.103 ± 0.0032 | – | –
298.15 K, m1 = 0.02523 | – | 998.11 ± 1.6 | –
298.15 K, m1 = 0.0353 | – | – | 0.993 ± 0.021
298.15 K, m1 = 0.0384 | – | – | 0.998 ± 0.021
298.15 K, m1 = 0.0552 | – | – | 1.026 ± 0.021
298.15 K, m1 = 0.0765 | – | – | 1.058 ± 0.022
303.15 K, m1 = 0.001 | 0.0089 ± 0.0016 | – | –
303.15 K, m1 = 0.0037 | 0.0297 ± 0.0017 | – | –
303.15 K, m1 = 0.00579 | – | 995.88 ± 1.6 | –
303.15 K, m1 = 0.0058 | – | – | 0.838 ± 0.017
303.15 K, m1 = 0.0062 | 0.0454 ± 0.0018 | – | –
303.15 K, m1 = 0.007 | – | 995.93 ± 1.6 | –
303.15 K, m1 = 0.0071 | – | – | 0.842 ± 0.018
303.15 K, m1 = 0.0072 | 0.0507 ± 0.0019 | – | –
303.15 K, m1 = 0.008 | 0.0559 ± 0.002 | – | –
303.15 K, m1 = 0.00801 | – | 995.97 ± 1.6 | –
303.15 K, m1 = 0.01 | 0.0659 ± 0.0022 | – | –
303.15 K, m1 = 0.01056 | – | 996.07 ± 1.6 | –
303.15 K, m1 = 0.0117 | – | – | 0.857 ± 0.018
303.15 K, m1 = 0.01278 | – | 996.17 ± 1.6 | –
303.15 K, m1 = 0.0144 | 0.0871 ± 0.0027 | – | –
303.15 K, m1 = 0.0158 | – | 996.29 ± 1.6 | –
303.15 K, m1 = 0.01707 | – | 996.35 ± 1.6 | –
303.15 K, m1 = 0.0205 | – | – | 0.879 ± 0.018
303.15 K, m1 = 0.02056 | – | 996.5 ± 1.6 | –
303.15 K, m1 = 0.0221 | 0.118 ± 0.0036 | – | –
303.15 K, m1 = 0.02523 | – | 996.7 ± 1.6 | –
303.15 K, m1 = 0.0353 | – | – | 0.911 ± 0.019
303.15 K, m1 = 0.0384 | – | – | 0.917 ± 0.019
303.15 K, m1 = 0.0552 | – | – | 0.945 ± 0.02
303.15 K, m1 = 0.0765 | – | – | 0.979 ± 0.02
308.15 K, m1 = 0.001 | 0.0099 ± 0.0017 | – | –
308.15 K, m1 = 0.0037 | 0.0328 ± 0.0018 | – | –
308.15 K, m1 = 0.00579 | – | 994.27 ± 1.6 | –
308.15 K, m1 = 0.0058 | – | – | 0.765 ± 0.016
308.15 K, m1 = 0.0062 | 0.0501 ± 0.002 | – | –
308.15 K, m1 = 0.007 | – | 994.32 ± 1.6 | –
308.15 K, m1 = 0.0071 | – | – | 0.77 ± 0.016
308.15 K, m1 = 0.0072 | 0.057 ± 0.0022 | – | –
308.15 K, m1 = 0.008 | 0.0623 ± 0.0022 | – | –
308.15 K, m1 = 0.00801 | – | 994.36 ± 1.6 | –
308.15 K, m1 = 0.01 | 0.0745 ± 0.0025 | – | –
308.15 K, m1 = 0.01056 | – | 994.46 ± 1.6 | –
308.15 K, m1 = 0.0117 | – | – | 0.787 ± 0.016
308.15 K, m1 = 0.01278 | – | 994.55 ± 1.6 | –
308.15 K, m1 = 0.0144 | 0.0986 ± 0.0031 | – | –
308.15 K, m1 = 0.0158 | – | 994.68 ± 1.6 | –
308.15 K, m1 = 0.01707 | – | 994.74 ± 1.6 | –
308.15 K, m1 = 0.0205 | – | – | 0.811 ± 0.017
308.15 K, m1 = 0.02056 | – | 994.89 ± 1.6 | –
308.15 K, m1 = 0.0221 | 0.133 ± 0.0041 | – | –
308.15 K, m1 = 0.02523 | – | 995.09 ± 1.6 | –
308.15 K, m1 = 0.0353 | – | – | 0.845 ± 0.018
308.15 K, m1 = 0.0384 | – | – | 0.851 ± 0.018
308.15 K, m1 = 0.0552 | – | – | 0.882 ± 0.018
308.15 K, m1 = 0.0765 | – | – | 0.916 ± 0.019
313.15 K, m1 = 0.001 | 0.011 ± 0.0019 | – | –
313.15 K, m1 = 0.0037 | 0.0362 ± 0.002 | – | –
313.15 K, m1 = 0.00579 | – | 992.45 ± 1.6 | –
313.15 K, m1 = 0.0058 | – | – | 0.701 ± 0.015
313.15 K, m1 = 0.0062 | 0.0551 ± 0.0022 | – | –
313.15 K, m1 = 0.007 | – | 992.5 ± 1.6 | –
313.15 K, m1 = 0.0071 | – | – | 0.707 ± 0.015
313.15 K, m1 = 0.0072 | 0.0629 ± 0.0024 | – | –
313.15 K, m1 = 0.008 | 0.0686 ± 0.0025 | – | –
313.15 K, m1 = 0.00801 | – | 992.54 ± 1.6 | –
313.15 K, m1 = 0.01 | 0.0826 ± 0.0028 | – | –
313.15 K, m1 = 0.01056 | – | 992.64 ± 1.6 | –
313.15 K, m1 = 0.0117 | – | – | 0.723 ± 0.015
313.15 K, m1 = 0.01278 | – | 992.73 ± 1.6 | –
313.15 K, m1 = 0.0144 | 0.111 ± 0.0035 | – | –
313.15 K, m1 = 0.0158 | – | 992.86 ± 1.6 | –
313.15 K, m1 = 0.01707 | – | 992.91 ± 1.6 | –
313.15 K, m1 = 0.0205 | – | – | 0.749 ± 0.016
313.15 K, m1 = 0.02056 | – | 993.06 ± 1.6 | –
313.15 K, m1 = 0.0221 | 0.149 ± 0.0046 | – | –
313.15 K, m1 = 0.02523 | – | 993.26 ± 1.6 | –
313.15 K, m1 = 0.0353 | – | – | 0.783 ± 0.016
313.15 K, m1 = 0.0384 | – | – | 0.789 ± 0.016
313.15 K, m1 = 0.0552 | – | – | 0.819 ± 0.017
313.15 K, m1 = 0.0765 | – | – | 0.853 ± 0.018

Reference: the NIST ThermoML archive (doi:10.1016/j.jct.2015.10.001)
